Laboratory results: patent publication US9650395B2, “Antibacterial compounds and methods for use” (PTC Therapeutics, Inc., priority 2011, dated 2017)
In brackets after ≈: the same amount, converted by molar mass. Counter-ions that a name gives are not always drawn.

Legend:
[1] = test system: super sensitive Gram-negative Escherichia coli (E. coli) BAS849; assay: Antibacterial activity, microbroth dilution MIC, E. coli BAS849; type: cell-based; settings: Escherichia coli; E. coli BAS849, microbroth dilution; read-out: MIC, BAS849
[2] = test system: control Gram-negative E. coli 25922 strain; assay: Antibacterial activity, microbroth dilution MIC, E. coli 25922; type: cell-based, Escherichia coli; settings: Escherichia coli; E. coli 25922, microbroth dilution; read-out: MIC, 25922
[3] = test system: Gram-positive Staphylococcus aureus (S. aureus) 29213; assay: Antibacterial activity, microbroth dilution MIC, S. aureus 29213; type: cell-based; settings: Staphylococcus aureus; S. aureus 29213, microbroth dilution; read-out: MIC, 29213
[4] = test system: quinolone resistant E. coli LZ3111; assay: Antibacterial activity, MIC, quinolone resistant E. coli LZ3111; type: cell-based, Escherichia coli; settings: Escherichia coli, read-out: MIC, LZ3111
Source text: (§1) The antibacterial activity from a microbroth dilution method may be presented as the minimum inhibitory concentration (MIC in […]). The MIC value is the lowest concentration of a drug which prevents macroscopically visible bacterial growth under test conditions.
Mutations in these regions are known to confer a high level resistance to the quinolone class of antibiotics.

[5] = test system: E. coli ELZ4000 (MDR clinical isolate); assay: Antibacterial activity, MIC, MDR E. coli ELZ4000; type: cell-based, Escherichia coli; settings: Escherichia coli; E. coli ELZ4000, MDR clinical isolate; read-out: MIC ELZ4000
[6] = test system: E. coli ELZ4251 (MDR clinical isolate); assay: Antibacterial activity, MIC, MDR E. coli ELZ4251; type: cell-based, Escherichia coli; settings: Escherichia coli, E. coli ELZ4251, MDR clinical isolate; read-out: MIC ELZ4251
[7] = test system: Acinetobacter baumannii (A. baumannii) BAA747; assay: Antibacterial activity, MIC, A. baumannii BAA747; type: cell-based; settings: Acinetobacter baumannii; A. baumannii BAA747; read-out: MIC BAA747
[8] = test system: Klebsiella pneumoniae (K. pneumoniae) 35657; assay: Antibacterial activity, MIC, K. pneumoniae 35657; type: cell-based; settings: Klebsiella pneumoniae
[9] = test system: resistant A. baumannii MXX2240 (MDR clinical isolate); assay: Antibacterial activity, MIC, resistant A. baumannii MXX2240; type: cell-based, Acinetobacter baumannii; settings: Acinetobacter baumannii, resistant A. baumannii MMX2240, MDR clinical isolate; read-out: MIC MMX2240
[10] = test system: resistant K. pneumoniae MXX1232 (MDR clinical isolate); assay: Antibacterial activity, MIC, resistant K. pneumoniae MXX1232; type: cell-based, Klebsiella pneumoniae; settings: Klebsiella pneumoniae; resistant K. pneumoniae MMX1232, MDR clinical isolate; read-out: MIC MMX1232
[11] = test system: Pseudomonas aeruginosa (P. aeruginosa) 27853; assay: Antibacterial activity, MIC, P. aeruginosa 27853; type: cell-based; settings: Pseudomonas aeruginosa, P. aeruginosa 27853; read-out: MIC 27853
Source text: as §1
Antibacterial activity of test compounds against the Gram-negative bacterium Pseudomonas aeruginosa (P. aeruginosa) 27853 is shown in Table 5.

[12] = test system: Haemophilus influenzae (H. influenzae) 49247; assay: Antibacterial activity, MIC, H. influenzae 49247; type: cell-based; settings: Haemophilus influenzae; H. influenzae 49247; read-out: MIC 49247
Outline: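 A microbroth dilution method gave the minimum inhibitory concentration for each compound against H. influenzae 49247, a Gram-negative bacterium. MIC means the smallest concentration of drug at which no macroscopically visible bacterial growth appears under the conditions of the test.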

[13] = test system: Moraxella catarrhalis (M. catarrhalis) 25238; assay: Antibacterial activity, MIC, M. catarrhalis 25238; type: cell-based; settings: Moraxella catarrhalis, M. catarrhalis 25238; read-out: MIC 25238
[14] = test system: Neisseria meningitidis (N. meningitidis) 13090; assay: Antibacterial activity, MIC, N. meningitidis 13090; type: cell-based; settings: Neisseria meningitidis; N. meningitidis 13090; read-out: MIC 13090

Structure (SMILES)	MIC [1]	MIC [2]	MIC [3]	MIC [4]	MIC [5]	MIC [6]	MIC [7]	MIC [8]	MIC [9]	MIC [10]	MIC [11]	MIC [12]	MIC [13]	MIC [14]
CCc1c(-c2ccc(N3C[C@H]4CCC[C@@H](N(C)C)[C@H]4C3)cc2)[nH]c(=O)c(C(=O)O)c1O.Cl [Cpd 261, 6-{4-[(3aR,4R,7aS)-4-(dimethylamino)octahydro-2H-isoindol-2-yl]phenyl}-5-ethyl-4-hydroxy-2-oxo-1,2-dihydropyridine-3-carboxylic acid hydrochloride]	< 1 µg/mL	3.5 to 12.5 µg/mL	3.5 to 12.5 µg/mL	1 to 3.5 µg/mL	12.5 to 150 µg/mL	3.5 to 12.5 µg/mL	12.5 to 150 µg/mL	12.5 to 150 µg/mL	12.5 to 150 µg/mL	12.5 to 150 µg/mL	12.5 to 150 µg/mL	12.5 to 150 µg/mL	3.5 to 12.5 µg/mL	< 1 µg/mL
CCc1cc(C(=O)O)c(=O)[nH]c1-c1ccc(N(C)C)nc1 [Cpd 86, 6-[6-(dimethylamino)pyridin-3-yl]-5-ethyl-2-oxo-1,2-dihydropyridine-3-carboxylic acid]	1 to 3.5 µg/mL (≈ 3.48 to 12.2 µM)	12.5 to 150 µg/mL (≈ 43.5 to 522 µM)	12.5 to 150 µg/mL (≈ 43.5 to 522 µM)	12.5 to 150 µg/mL (≈ 43.5 to 522 µM)	–	–	12.5 to 150 µg/mL (≈ 43.5 to 522 µM)	12.5 to 150 µg/mL (≈ 43.5 to 522 µM)	12.5 to 150 µg/mL (≈ 43.5 to 522 µM)	12.5 to 150 µg/mL (≈ 43.5 to 522 µM)	12.5 to 150 µg/mL (≈ 43.5 to 522 µM)	< 1 µg/mL	1 to 3.5 µg/mL (≈ 3.48 to 12.2 µM)	< 1 µg/mL
CCc1c(-c2ccc(N3C[C@H]4CC[C@@H](N)[C@H]4C3)cc2)[nH]c(=O)c(C(=O)O)c1O.Cl [Cpd 264, 6-{4-[(3aR,4R,6aS)-4-aminohexahydrocyclopenta[c]pyrrol-2(1H)-yl]phenyl}-5-ethyl-4-hydroxy-2-oxo-1,2-dihydropyridine-3-carboxylic acid hydrochloride]	< 1 µg/mL	1 to 3.5 µg/mL	3.5 to 12.5 µg/mL	1 to 3.5 µg/mL	12.5 to 150 µg/mL	3.5 to 12.5 µg/mL	12.5 to 150 µg/mL	3.5 to 12.5 µg/mL	12.5 to 150 µg/mL	12.5 to 150 µg/mL	12.5 to 150 µg/mL	3.5 to 12.5 µg/mL	1 to 3.5 µg/mL	< 1 µg/mL
CCc1c(-c2ccc(N(C)C)nc2)[nH]c(=O)c(C(=O)O)c1O [Cpd 87, 6-[6-(dimethylamino)pyridin-3-yl]-5-ethyl-4-hydroxy-2-oxo-1,2-dihydropyridine-3-carboxylic acid]	< 1 µg/mL	12.5 to 150 µg/mL (≈ 41.2 to 495 µM)	12.5 to 150 µg/mL (≈ 41.2 to 495 µM)	1 to 3.5 µg/mL (≈ 3.3 to 11.5 µM)	1 to 3.5 µg/mL (≈ 3.3 to 11.5 µM)	1 to 3.5 µg/mL (≈ 3.3 to 11.5 µM)	3.5 to 12.5 µg/mL (≈ 11.5 to 41.2 µM)	12.5 to 150 µg/mL (≈ 41.2 to 495 µM)	< 1 µg/mL	12.5 to 150 µg/mL (≈ 41.2 to 495 µM)	12.5 to 150 µg/mL (≈ 41.2 to 495 µM)	1 to 3.5 µg/mL (≈ 3.3 to 11.5 µM)	1 to 3.5 µg/mL (≈ 3.3 to 11.5 µM)	< 1 µg/mL
CCc1c(-c2ccc(N3C[C@@H]4[C@H](C3)[C@H]4NC)cc2)[nH]c(=O)c(C(=O)O)c1O [Cpd 270, 5-ethyl-4-hydroxy-6-{4-[(1R,5S,6s)-6-(methylamino)-3-azabicyclo[3.1.0]hex-3-yl]phenyl}-2-oxo-1,2-dihydropyridine-3-carboxylic acid hydrochloride]	< 1 µg/mL	< 1 µg/mL	3.5 to 12.5 µg/mL	1 to 3.5 µg/mL	12.5 to 150 µg/mL	3.5 to 12.5 µg/mL	< 1 µg/mL	< 1 µg/mL	12.5 to 150 µg/mL	12.5 to 150 µg/mL	1 to 3.5 µg/mL	< 1 µg/mL	< 1 µg/mL	< 1 µg/mL
